Experimental data as given in patent publication US9783575B2, “Methyl degron peptide and methods of controlling protein lifespan” (Seoul National University (SNU) R&D Foundation, priority 2012, dated 2017).

Legend:
EZH2 [1] = test: Immunoblot of EZH2 and RORα protein levels with DZNep; type: cell-based; details: MCF7 cells, DZNep 1 μM, 24 hr, immunoblot (FIG. 19)
Description: (§1) In order to determine whether the ubiquitin-proteasome pathway is responsible for RORα degradation and to further examine whether the introduction of EZH2 augments RORα ubiquitination by allowing increased RORα methylation, we performed an RORα ubiquitination assay with EZH2 in the presence of a 26S proteasome inhibitor, MG132. […] To further examine whether K38 methylation directly affects RORα ubiquitination, we performed a ubiquitination assay for RORα WT and RORα K38A in the presence of MG132. Indeed, RORα K38A mutation led to a marked reduction in RORα ubiquitination compared to RORα WT (FIG. 18). Next, we examined whether an EZH2 small molecule inhibitor, exemplified by DZNep, rescues the EZH2-mediated degradation of RORα.

RORα ubiquitination = RORα ubiquitination assay with DZNep; type: cell-based; details: HEK-293T cells, DZNep 1 μM, 24 hr (FIG. 20)
Procedure: Cells were transfected with combinations of plasmids including HisMax-ubiquitin. After incubation for 48 hrs, cells were treated with MG132, lysed in buffer A (6 M guanidinium-HCl, 0.1 M Na2HPO4/NaH2PO4, 0.01 M Tris-Cl [pH 8.0], 5 mM imidazole, and 10 mM β-mercaptoethanol), and incubated with Ni^2+-NTA beads (Qiagen) for 4 hrs at room temperature. The beads were sequentially washed with buffer A, buffer B (8 M urea, 0.1 M Na2PO4/NaH2PO4, 0.01 M Tris-Cl [pH 8.0], and 10 mM β-mercaptoethanol), and buffer C (8 M urea, 0.1 M Na2PO4/NaH2PO4, 0.01 M Tris-Cl [pH 6.3], and 10 mM β-mercaptoethanol). Bound proteins were eluted with buffer D (200 mM imidazole, 0.15 M Tris-Cl [pH 6.7], 30% glycerol, 0.72 M β-mercaptoethanol, and 5% SDS), and subject to immunoblot analysis.
as §1, with “Next, we examined whether an EZH2 small molecule inhibitor, exemplified by DZNep, rescues the EZH2-mediated degradation of RORα.” left out

MCF7 breast cancer cells = test: Cell transformation assay (anchorage-independent growth in soft agar); type: cell-based; set-up: dose or concentration left out as unconfirmed; details: 3 weeks (FIG. 60)
Procedure: Representative images are shown for each group. Immunoblot analysis was performed to detect each protein level. […]

EZH2 [2] = target: T1, EZH2 (Homo sapiens, UniProt Q15910); test: In vitro methyltransferase (HMTase) assay with mass spectrometry; type: biochemical; details: 100 μM synthetic peptide, GST-EZH2, LC-MS (FIG. 4)
T1 construct: GST
Procedure: Small quantities (100 μM) of synthetic peptides (RORα WT) were used as substrates in the HMTase assay with EZH2 enzyme; the reaction was stopped by 10% TCA precipitation for 10 min at 4° C. After removing the precipitates by centrifugation, the supernatants were retrieved and methylated peptides in the supernatants were analyzed by LC-MS. The eluted peptides were separated on a Luna column (C18 PepMap 100, 150×1 mm 5 micron) with a linear gradient (A: 100% H2O, 0.1% formic acid, B: 100% ACN, 0.1% formic acid) at a flow rate of […]. Typically, 2 μL of sample was injected. Mass spectrometry was performed on a linear ion trap mass spectrometer (LCQ DECA XP, Thermo Finningan) coupled to a nano-LC system (NANOSPACE SI-2, Shiseido). The MS method consisted of a cycle combining one full MS scan (Mass range: 160-2000 m/z).
The association of EZH2 with RORα at endogenous levels was confirmed by co-immunoprecipitation analysis (FIG. 3). To assess whether RORα is methylated by EZH2 and to determine the methylation status of RORα, peptides bearing amino acids 31-40 of RORα (LNQESARKSE) were in vitro methylated by EZH2 and analyzed by mass spectrometry. […]

T1 sequence (Q15910 whole entry, species assumed): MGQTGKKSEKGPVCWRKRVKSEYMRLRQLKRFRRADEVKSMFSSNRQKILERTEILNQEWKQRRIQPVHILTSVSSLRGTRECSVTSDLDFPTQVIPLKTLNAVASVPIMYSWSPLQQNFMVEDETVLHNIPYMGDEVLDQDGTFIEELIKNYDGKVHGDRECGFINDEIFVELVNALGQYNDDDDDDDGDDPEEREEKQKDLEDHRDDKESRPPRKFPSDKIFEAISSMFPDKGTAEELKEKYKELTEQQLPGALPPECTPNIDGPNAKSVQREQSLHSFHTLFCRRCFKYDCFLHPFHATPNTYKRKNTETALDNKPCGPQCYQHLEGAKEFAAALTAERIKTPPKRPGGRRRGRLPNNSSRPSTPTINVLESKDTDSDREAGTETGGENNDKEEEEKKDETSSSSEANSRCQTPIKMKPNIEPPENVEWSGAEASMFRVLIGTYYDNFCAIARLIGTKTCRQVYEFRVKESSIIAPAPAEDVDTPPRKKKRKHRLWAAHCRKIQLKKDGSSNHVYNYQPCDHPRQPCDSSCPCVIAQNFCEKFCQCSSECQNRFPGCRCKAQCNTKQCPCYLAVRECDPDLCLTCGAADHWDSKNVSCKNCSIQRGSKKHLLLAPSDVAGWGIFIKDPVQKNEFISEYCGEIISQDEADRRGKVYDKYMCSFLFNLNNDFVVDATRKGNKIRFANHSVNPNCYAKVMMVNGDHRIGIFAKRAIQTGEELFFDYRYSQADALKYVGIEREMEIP

## Nc1nccc2c1ncn2C1C=C(CO)C(O)C1O (centres unmarked) [DZNep]
EZH2 [1]
  EZH2 protein levels: reduction of EZH2 protein levels
  RORα protein levels: increases in RORα protein levels
RORα ubiquitination
  RORα ubiquitination levels: decreased
MCF7 breast cancer cells
  cellular transformation (colony formation in soft agar): inhibitory effect on cellular transformation

## LNQESARKSE [RORα wild-type (WT) peptide, peptide bearing amino acids 31-40 of RORα]
EZH2 [2]
  methylation of peptide by EZH2: addition of one methyl group to the K38 site
